Laboratory results: patent US20220220100A1 (SOLUTIA CANADA INC., priority 2019, published 2022)

Key:
Assay type in all cases: physicochemical
[1] = UV/Vis absorbance at 400 nm and Yellowness Index of the ring-open isomer; conditions: for Abs @ 400 nm, RO (Absorption of ring-open isomer at 400 nm): 2×10^−5 M solution, 1 cm pathlength cuvette
From the text: In addition to the above, chromophores should have acceptable colour for both the ring-opened and ring-closed isomers. For example, the ring-open isomer of the chromophore should have a Yellowness Index (YI) of less than about 10 and an absorbance at 400 nm, as measured for a 2×10^−5 M solution in a 1 cm pathlength cuvette. For the ring-closed isomer of the chromophore, the lambda max should be between about 475 nm and 700 nm, tunable according to desired colour and number of chromophores in the composition.
UV/Vis spectra were obtained using an OceanOptics™ Spectrophotometer. A 2×10^−5 M solution of compound in solvent was prepared, and photofaded using visible light until absorption in the visible region of the spectrum stabilized. The sample was then irradiated with simulated sunlight (QSUN SS-150 Solar Simulator with xenon arc lamp) until the absorption spectrum stabilized. To obtain PSS in the presence of a UV blocking film, a second sample was prepared and irradiated as described, with a UV blocking film inserted in the light path when irradiating.

[2] = Photostability: xenon arc weathering of chromophore solutions, LCMS analysis; conditions: for Ketone (%) / Minus-2HF (%) / Minus-HF (%) / Sulfone (%) / Chromophore Remaining (%): xenon arc, 82° C. bp; for Ketone (%) / Minus-2HF (%) / Minus-HF (%) / Sulfone (%): linearly interpolated to 0.5 MJ/m2 @ 340 nm; for Chromophore Remaining (%): linearly interpolated to 0.5 MJ/m2 @ 340 nm of exposure energy; for Ratio of chromophore remaining relative to S340: interpolated to 0.5 MJ/m^2 of energy exposure at 340 nm; for Photostability (in words): weathering experiments
From the text: Photostability (resistance to light-induced degradation) may be measured by the amount of time required for the compound, or a material comprising the compound, to degrade to a certain point under light exposure. The light exposure may be constant, or cyclic. The light transmittance or absorbance of the compound, or material comprising the compound, may be determined at both a light state and dark state prior to testing, to determine a contrast ratio. During testing, the contrast ratio may be monitored (periodically or continually), the compound or material may be determined to have failed when the contrast ratio falls outside, or below, a selected range, or when the contrast ratio decreases to a percentage of the original contrast ratio. Photostability may also be expressed with reference to a light source or with reference to a type of light.
(§1) Chromophore solutions in Rhodiasolv IRIS were prepared at 1 to 10 wt % loading. Solutions were prepared in a glovebox by charging the chromophore and Rhodiasolv IRIS to a trace-clean vial, and the solution was stirred on a hotplate at 90° C. for 2-24 hours. After cooling, the chromophore solution was injected into glass weathering cells and the fill and vent ports were sealed with a thin disc of Kalrez (FFKM Perfluorinated Elastomer) and secured with a clamp and set-screw. The weathering cells were filled and sealed inside the glove box.
Measurement of Photostability
A. Fabrication of cuvettes. Two holes of 0.8 mm diameter were drilled at opposite ends in a 75×50 mm piece of float glass using a diamond drill bit in a rotary tool. The drilled glass and a matching piece of undrilled glass were then cleaned using hot soapy water, rinsed with deionized water and acetone and then dried with compressed air. A 5 mm wide frame was cut from a sheet of 50 μm thickness EVAL EF-F using a laser engraver. The EVAL frame was placed around the perimeter of one sheet of glass and sandwiched by the second sheet of glass. The glass-EVAL-glass sandwich was secured with tape and heated under vacuum (10 mmHg) for 30 minutes at 170° C. in a vacuum bag. After cooling, a third piece of float glass was PVB laminated to the non-drilled side of the sealed glass cells using Trosifol UV Extra Protect B150 PVB (400 nm UV cut-off).
B. Xenon arc weathering protocol. Devices were exposed to simulated weathering conditions inside a Xe-3-HS xenon arc chamber, manufactured by Q-labs Inc. The samples were weathered according to the following table. The devices were exposed to these conditions continuously, with no dark or spray cycles included.
C. Analysis of weathered chromophore solutions by LCMS. The set-screws, metal clamps and Kalrez plugs were removed from the cuvette to expose the fill port. A 5 mL plastic syringe (NORM-JECT®) equipped with a tip (Precision Tips, 0.010″ RED) was inserted into one fill port and the chromophore solution was withdrawn from the cuvette. The chromophore solution was then injected into a 2 mL amber vial (part number 5182-0716, Agilent Technology) prefilled with 1.5 mL LC-MS grade acetonitrile (HiPerSolbe CHROMANORM Acetonitrile, VWR BDH Chemicals). An aliquot of the acetonitrile solution (2 μL) was injected into the LC-MS system (Agilent Infinity 1290 LC-MS system with diode array detector) through an autosampler mechanism. Species in the injected sample were separated through a reverse phase column (Zorbax SB-C18, 2.1×50 mm, 1.8 μm, operated at 40° C.), using a mixture of acetonitrile (mixed with 1% formic acid v/v ratio), methanol (HiPerSolbe CHROMANORM Methanol, VWR BDH Chemicals) and water (HiPerSolbe CHROMANORM Water, VWR BDH Chemicals) as mobile phase.

[3] = Solubility in Rhodiasolv IRIS solvent; conditions: for Solubility in Rhodiasolv IRIS: Rhodiasolv IRIS (dimethyl-2-methyl glutarate), wt %; for Solubility (in words): relative to the methoxy parent chromophore
From the text: A compound with greater solubility allows for a formulation or material with a greater concentration of coloured molecule to be incorporated into a composition. This may allow for increasing the contrast ratio for a compound with a lesser absorbance at PSS. Examples of solubilizing groups for the compound include alkoxy, ether, ester or siloxy groups. In various embodiments, compounds may be soluble in the solvent component at room temperature at about 6 wt %, 7 wt %, 8 wt %, 9 wt %, 10 wt % or greater for testing to determine whether a compound has application as an exterior glazing or optical filter. If the solubility of a compound in the solvent component is too low, then insufficient darkening may be achieved in the ring-closed configuration, depending on conditions of use for the compound.
as §1

[4] = Oxidation potential of ring-closed and ring-open isomers; conditions: no unit printed in table (V relative to Ag/AgCl)
From the text: In various embodiments, at a PSS, some of the chromophore will be in the ring-closed isomer, with a small, but non-zero portion of ring-open isomer. The oxidation potential of a ring-open isomer may be more anodic than the oxidation potential of a ring-closed isomer. Exposure to a potential that is too far beyond what is necessary to oxidize the ring-closed isomer may result in oxidation of the ring-open isomer, which may be irreversible and result in electrochemically-induced degradation of the chromophore.
Thus, in various embodiments, an anodic chromophore may have an oxidation potential of from about 0.4 V to 1.2 V for the ring-closed isomer and about 1.0 V to 2.5 V for the ring-open isomer relative to an Ag/AgCl reference electrode. In various embodiments, the oxidation potential for the ring-open isomer is about 250 mV more anodic than the oxidation potential for the ring-closed isomer. For example, the oxidation potential may be about 260 mV, about 280 mV, about 300 mV, about 320 mV, about 340 mV, about 360 mV, about 380 mV, about 400 mV, about 420 mV, about 440 mV, or about 460 mV more anodic than the oxidation potential for the ring-closed isomer.

| Structure (SMILES) | YI (Yellowness Index) [1] | Abs @ 400 nm, RO (Absorption of ring-open isomer at 400 nm) [1] | Ketone (%) ([2]; 3 wt % in Rhodiasolv IRIS) | Minus-2HF (%) ([2]; 3 wt % in Rhodiasolv IRIS) | Minus-HF (%) ([2]; 3 wt % in Rhodiasolv IRIS) | Sulfone (%) ([2]; 3 wt % in Rhodiasolv IRIS) | Chromophore Remaining (%) ([2]; 3 wt % in Rhodiasolv IRIS) | Ratio of chromophore remaining relative to S340 ([2]; 3 wt %) | Photostability (in words) [2] | Solubility in Rhodiasolv IRIS [3] | RC [O] (oxidation potential of ring-closed isomer) [4] | RO [O] (oxidation potential of ring-open isomer) [4] | Ketone (%) ([2]; 10 wt % in Rhodiasolv IRIS) | Minus-2HF (%) ([2]; 10 wt % in Rhodiasolv IRIS) | Minus-HF (%) ([2]; 10 wt % in Rhodiasolv IRIS) | Sulfone (%) ([2]; 10 wt % in Rhodiasolv IRIS) | Chromophore Remaining (%) ([2]; 10 wt % in Rhodiasolv IRIS) | Ratio of chromophore remaining relative to S340 ([2]; 10 wt %) | Solubility (in words) [3] |
| --- | --- | --- | --- | --- | --- | --- | --- | --- | --- | --- | --- | --- | --- | --- | --- | --- | --- | --- | --- |
| CC(C)(C)c1ccc(-c2oc3ccccc3c2C2=C(c3cc(-c4ccc(C(C)(C)C)s4)sc3-c3ccc(C(C)(C)C)s3)C(F)(F)C(F)(F)C2(F)F)cc1 [Chromophore S343, 2-(4-(tert-butyl)phenyl)-3-(2-(5,5″-di-tert-butyl-[2,2′:5′,2″-terthiophen]-3′-yl)-3,3,4,4,5,5-hexafluorocyclopent-1-en-1-yl)benzofuran] | 4.87 | 0.11 | 0.0% | 3.1% | 0.0% | 0.0% | 85.2% | 0.93 | more rapid degradation compared to S340 | <1% | 1.1 | 1.37 |  |  |  |  |  |  |  |
| COc1ccc2oc(-c3ccc(C(C)(C)C)cc3)c(C3=C(c4cc(-c5ccc(C(C)(C)C)s5)sc4-c4ccc(C(C)(C)C)s4)C(F)(F)C(F)(F)C3(F)F)c2c1 [Chromophore S344, 2-(4-(tert-butyl)phenyl)-3-(2-(5,5″-di-tert-butyl-[2,2′:5′,2″-terthiophen]-3′-yl)-3,3,4,4,5,5-hexafluorocyclopent-1-en-1-yl)-5-methoxybenzofuran] | 2.91 | 0.1 | 0.0% | 8.0% | 25.7% | 0.0% | 65.1% | 0.71 | more rapid degradation compared to S340 | <3% | 1.05 | 1.36 |  |  |  |  |  |  |  |
| COCCOc1cc2oc(-c3ccc(C(C)(C)C)cc3)c(C3=C(c4cc(-c5ccc(C(C)(C)C)s5)sc4-c4ccc(C(C)(C)C)s4)C(F)(F)C(F)(F)C3(F)F)c2cc1OCCOC [Chromophore S364, 2-(4-(tert-butyl)phenyl)-3-(2-(5,5″-di-tert-butyl-[2,2′:5′,2″-terthiophen]-3′-yl)-3,3,4,4,5,5-hexafluorocyclopent-1-en-1-yl)-5,6-bis(2-methoxyethoxy)benzofuran] | 4.21 | 0.105 |  |  |  |  |  |  | decreased stability | >10% | 0.93 | 1.32 | 0.6% | 2.7% | 14.9% | 0.0% | 80.4% | 0.88 | improved |
| CC(=O)Oc1cc2oc(-c3ccc(C(C)(C)C)cc3)c(C3=C(c4cc(-c5ccc(C(C)(C)C)s5)sc4-c4ccc(C(C)(C)C)s4)C(F)(F)C(F)(F)C3(F)F)c2cc1OC(C)=O [Chromophore S367, 2-(4-(tert-butyl)phenyl)-3-(2-(5,5″-di-tert-butyl-[2,2′:5′,2″-terthiophen]-3′-yl)-3,3,4,4,5,5-hexafluorocyclopent-1-en-1-yl)benzofuran-5,6-diyl diacetate] | 5.47 | 0.102 |  |  |  |  |  |  | more rapid degradation compared to S340 | >10% | 1.12 | 1.38 | 1.1% | 0.0% | 56.0% | 0.0% | 40.8% | 0.45 | improved |
